Measured values taken from paper PMC8976029, “Gut microbiota production of trimethyl-5-aminovaleric acid reduces fatty acid oxidation and accelerates cardiac hypertrophy” (Nature Communications, 2022).

Target: T1, OCTN2 (hOCTN2) (Homo sapiens, UniProt O76082)
T1 construct: gene SLC22A5; human OCTN2 stably overexpressed in MDCK cells; no tag stated
T1 sequence (O76082 1-557): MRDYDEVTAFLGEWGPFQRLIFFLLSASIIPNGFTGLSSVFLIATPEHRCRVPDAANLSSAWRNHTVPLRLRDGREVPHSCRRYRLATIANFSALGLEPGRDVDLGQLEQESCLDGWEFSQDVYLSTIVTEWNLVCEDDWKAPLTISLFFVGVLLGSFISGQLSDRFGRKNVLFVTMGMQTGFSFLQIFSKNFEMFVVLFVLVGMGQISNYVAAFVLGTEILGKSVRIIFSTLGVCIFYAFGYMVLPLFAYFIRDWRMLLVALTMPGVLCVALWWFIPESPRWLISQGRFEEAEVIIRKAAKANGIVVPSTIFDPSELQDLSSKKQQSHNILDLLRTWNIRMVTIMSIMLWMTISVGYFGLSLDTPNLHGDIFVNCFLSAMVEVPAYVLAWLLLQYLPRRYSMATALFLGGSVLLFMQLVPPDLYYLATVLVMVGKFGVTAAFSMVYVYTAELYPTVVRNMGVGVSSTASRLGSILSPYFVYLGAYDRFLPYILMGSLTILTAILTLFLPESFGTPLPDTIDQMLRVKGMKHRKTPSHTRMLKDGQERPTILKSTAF
Assay: d9-carnitine uptake inhibition, LC-MS/MS
Assay type: cell-based
Source text: d9-carnitine uptake inhibition, LC-MS/MS on OCTN2 (hOCTN2) | TMAVA reduced the uptake of d9-carnitine in a concentration-dependent manner with an IC50 of […]

IC50: 4.15 µM
Compound: C[N+](C)(C)CCCCC(=O)O [TMAVA, N,N,N-trimethyl-5-aminovaleric acid]
